In US8198273B2, “Compounds and methods for kinase modulation, and indications therefor” (Plexxikon Inc., priority 2009, dated 2012):

Tests used:
[1] = molecular target: B-Raf (Homo sapiens, UniProt P15056); test: B-Raf biochemical kinase inhibition (AlphaScreen, biotin-MEK1 substrate); conditions: 100 μM ATP
Summary of the method: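 IC50 derived from AlphaScreen signal plotted against compound concentration. Final ATP 100 μM; 3 h incubation at room temperature. Eight-point 3-fold dilution series prepared from a 0.1 mM DMSO stock.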

[2] = tested on: SW620 colon adenocarcinoma cells (wild-type B-RAF); test: SW620 cell growth inhibition (ATPlite); type: cell-based; conditions: Homo sapiens, SW-620, 72 h; SW620, 3 days incubation
Summary of the method: (§1)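 Cells plated overnight, then exposed 3 days at 37° C to 8-point 1:3 compound dilutions topping at 10 μM final. Viability read as ATPlite luminescence, proportional to cell number; IC50 from luminescence versus concentration.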

[3] = tested on: A375 melanoma cells (B-Raf V600E); test: A375 cell growth inhibition (ATPlite); type: cell-based; conditions: Homo sapiens, A-375, 72 h; A375, 3 days incubation
Summary of the method: as §1

[4] = tested on: COLO205 colon adenocarcinoma cells (B-Raf V600E); test: COLO205 cell growth inhibition (ATPlite); type: cell-based; conditions: Homo sapiens, COLO 205, 72 h; COLO205, 3 days incubation
Summary of the method: as §1

[5] = Relative solubility by turbidity in aqueous buffers of varying pH; type: physicochemical
Summary of the method: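 Turbidity endpoint: concentration where optical density at 490, 535 and 650 nm exceeds 0.01, three-wavelength average used. Buffers at pH 1.5, 4.5, 6.8 and 7.4; DMSO serial dilutions of 25 mM stock spiked 1 μL into 99 μL buffer. Low <31.3, moderate 31.3–250, high >250 μM.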

Chain of B-Raf (P15056 whole entry): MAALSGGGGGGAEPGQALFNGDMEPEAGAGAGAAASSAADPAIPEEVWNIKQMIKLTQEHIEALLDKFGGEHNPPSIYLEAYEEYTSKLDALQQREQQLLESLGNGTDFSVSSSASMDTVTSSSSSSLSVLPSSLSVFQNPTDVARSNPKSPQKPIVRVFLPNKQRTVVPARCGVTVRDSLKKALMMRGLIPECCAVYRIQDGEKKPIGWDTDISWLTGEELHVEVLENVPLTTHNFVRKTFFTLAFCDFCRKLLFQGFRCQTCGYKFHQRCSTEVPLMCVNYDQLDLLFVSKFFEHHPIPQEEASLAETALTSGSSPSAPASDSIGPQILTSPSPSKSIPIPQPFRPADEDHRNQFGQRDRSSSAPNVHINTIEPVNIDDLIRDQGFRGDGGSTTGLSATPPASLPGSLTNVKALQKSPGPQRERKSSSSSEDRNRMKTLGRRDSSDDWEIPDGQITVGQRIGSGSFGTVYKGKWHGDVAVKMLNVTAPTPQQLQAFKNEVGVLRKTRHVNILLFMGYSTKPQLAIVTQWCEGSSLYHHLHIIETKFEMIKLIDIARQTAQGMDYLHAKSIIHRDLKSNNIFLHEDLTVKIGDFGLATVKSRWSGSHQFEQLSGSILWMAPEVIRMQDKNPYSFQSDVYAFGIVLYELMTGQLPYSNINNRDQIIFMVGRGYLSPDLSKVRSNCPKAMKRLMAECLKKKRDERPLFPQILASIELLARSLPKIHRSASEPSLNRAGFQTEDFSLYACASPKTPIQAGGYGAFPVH

IC50 [1]: < 100 nM
IC50 [2]: > 10 µM
IC50 [3]: < 100 nM
IC50 [4]: < 100 nM
Structure (SMILES): CCCS(=O)(=O)Nc1ccc(F)c(C(=O)c2c[nH]c3ncc(-c4ccc(N(C)C)nc4)cc23)c1F [P-2229, Propane-1-sulfonic acid {3-[5-(6-dimethylamino-pyridin-3-yl)-1H-pyrrolo[2,3-b]pyridine-3-carbonyl]-2,4-difluoro-phenyl}-amide]
turbidity threshold (L, M, H) 7.4 ([5]; HEPES pH 7.4): M (moderate solubility if the threshold concentration is 31.3 μM to 250 μM)
turbidity threshold (L, M, H) 4.5 ([5]; SIF pH 4.5): L (low solubility if the threshold concentration is <31.3 04)
turbidity threshold (L, M, H) 6.8 ([5]; SIF pH 6.8): M (moderate solubility if the threshold concentration is 31.3 μM to 250 μM)
turbidity threshold (L, M, H) 1.4 ([5]; buffer pH 1.4 (SGF)): M (moderate solubility if the threshold concentration is 31.3 μM to 250 μM)
